Reference: ChEMBL document CHEMBL1156106 (J Med Chem, 2009)

Assays:
[1] = test system: Rattus norvegicus; assay: Effect on behavioural activity in ip dosed rat assessed as cocaine-induced lever response pretreated with cocaine by drug-discrimination studies; type: functional
[2] = test system: Rattus norvegicus; assay: Effect on behavioural activity in rat assessed as cocaine-induced lever response at 0.5 mg/kg, ip pretreated with cocaine for 15 mins by drug-discrimination studies; type: functional; conditions: route intraperitoneal
[3] = target: T1, Sodium-dependent serotonin transporter (Homo sapiens, UniProt P31645); assay: biochemical; type: cell-based, HEK293
T1 sequence (P31645 whole entry): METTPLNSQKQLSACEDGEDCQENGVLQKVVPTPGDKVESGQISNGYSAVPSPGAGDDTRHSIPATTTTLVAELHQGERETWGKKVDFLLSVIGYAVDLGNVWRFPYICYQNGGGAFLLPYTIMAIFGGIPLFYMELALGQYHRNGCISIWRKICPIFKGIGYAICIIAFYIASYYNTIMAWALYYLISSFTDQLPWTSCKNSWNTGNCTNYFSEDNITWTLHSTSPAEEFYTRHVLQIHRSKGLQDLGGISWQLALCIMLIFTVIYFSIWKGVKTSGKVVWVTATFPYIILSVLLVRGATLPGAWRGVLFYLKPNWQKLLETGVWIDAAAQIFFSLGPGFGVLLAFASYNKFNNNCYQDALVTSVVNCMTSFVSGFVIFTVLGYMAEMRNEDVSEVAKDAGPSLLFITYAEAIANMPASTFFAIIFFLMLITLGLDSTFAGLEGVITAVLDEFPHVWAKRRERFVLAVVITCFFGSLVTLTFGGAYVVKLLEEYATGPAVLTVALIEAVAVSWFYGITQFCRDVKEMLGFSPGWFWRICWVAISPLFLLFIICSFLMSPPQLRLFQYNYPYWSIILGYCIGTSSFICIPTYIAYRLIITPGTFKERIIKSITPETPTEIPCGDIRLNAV

[4] = target: T2, Sodium-dependent noradrenaline transporter (Homo sapiens, UniProt P23975); assay: Displacement of [125I]RTI55 from cloned human NET expressed in HEK293 cells; type: cell-based
T2 sequence (P23975 whole entry): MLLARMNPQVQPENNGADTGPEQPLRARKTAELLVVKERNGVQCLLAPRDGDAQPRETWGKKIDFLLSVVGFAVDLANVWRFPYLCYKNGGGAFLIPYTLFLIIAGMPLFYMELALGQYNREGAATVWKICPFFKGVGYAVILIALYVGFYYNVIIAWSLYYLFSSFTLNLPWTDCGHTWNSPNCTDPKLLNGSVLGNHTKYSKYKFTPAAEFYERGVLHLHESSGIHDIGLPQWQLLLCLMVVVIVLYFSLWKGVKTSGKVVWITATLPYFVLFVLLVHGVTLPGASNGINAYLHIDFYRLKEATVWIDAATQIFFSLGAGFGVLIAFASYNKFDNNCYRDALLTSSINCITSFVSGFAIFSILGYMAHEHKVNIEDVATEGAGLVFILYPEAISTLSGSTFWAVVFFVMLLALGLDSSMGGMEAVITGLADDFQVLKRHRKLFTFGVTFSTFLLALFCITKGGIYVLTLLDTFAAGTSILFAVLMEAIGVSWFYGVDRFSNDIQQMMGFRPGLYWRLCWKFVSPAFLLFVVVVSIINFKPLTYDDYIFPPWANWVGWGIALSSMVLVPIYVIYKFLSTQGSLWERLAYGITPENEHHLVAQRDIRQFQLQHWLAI

[5] = test system: Mus musculus; assay: Antidepressant activity in ip dosed mouse assessed as stimulation of locomotor activity; type: functional
[6] = test system: Mus musculus; assay: Antidepressant activity in ip dosed mouse assessed as stimulation of locomotor activity relative to cocaine; type: functional
[7] = test system: Mus musculus; assay: Antidepressant activity in ip dosed mouse assessed as time to reach peak stimulation of locomotor activity; type: functional
[8] = test system: Mus musculus; assay: Antidepressant activity in ip dosed mouse assessed as duration of locomotor activity; type: functional
[9] = test system: Rattus norvegicus; assay: Effect on behavioural activity in rat assessed as cocaine-induced lever response at 1 mg/kg, ip pretreated with cocaine for 15 mins by drug-discrimination studies; type: functional; conditions: route intraperitoneal
[10] = test system: Rattus norvegicus; assay: Effect on behavioural activity in rat assessed as cocaine-induced lever response at 2.5 mg/kg, ip pretreated with cocaine for 15 mins by drug-discrimination studies; type: functional; conditions: route intraperitoneal
[11] = test system: Rattus norvegicus; assay: Effect on behavioural activity in rat assessed as cocaine-induced lever response at 5 mg/kg, ip pretreated with cocaine for 15 mins by drug-discrimination studies; type: functional; conditions: route intraperitoneal
[12] = test system: Rattus norvegicus; assay: Effect on behavioural activity in rat assessed as cocaine-induced lever response at 10 mg/kg, ip pretreated with cocaine for 15 mins by drug-discrimination studies; type: functional; conditions: route intraperitoneal
[13] = test system: Rattus norvegicus; assay: Effect on behavioural activity in rat assessed as cocaine-induced lever response at 25 mg/kg, ip pretreated with cocaine for 15 mins by drug-discrimination studies; type: functional; conditions: route intraperitoneal
[14] = test system: Rattus norvegicus; assay: Effect on behavioural activity in rat assessed as cocaine-induced lever response at 50 mg/kg, ip pretreated with cocaine for 15 mins by drug-discrimination studies; type: functional; conditions: route intraperitoneal
[15] = test system: Rattus norvegicus; assay: Effect on behavioural activity in rat assessed as cocaine-induced lever response at 100 mg/kg, ip pretreated with cocaine for 15 mins by drug-discrimination studies; type: functional; conditions: route intraperitoneal
[16] = target: T3, Sodium-dependent dopamine transporter (Homo sapiens, UniProt Q01959); assay: Displacement of [125I]RTI55 from cloned human DAT expressed in HEK293 cells; type: cell-based
T3 sequence (Q01959 whole entry): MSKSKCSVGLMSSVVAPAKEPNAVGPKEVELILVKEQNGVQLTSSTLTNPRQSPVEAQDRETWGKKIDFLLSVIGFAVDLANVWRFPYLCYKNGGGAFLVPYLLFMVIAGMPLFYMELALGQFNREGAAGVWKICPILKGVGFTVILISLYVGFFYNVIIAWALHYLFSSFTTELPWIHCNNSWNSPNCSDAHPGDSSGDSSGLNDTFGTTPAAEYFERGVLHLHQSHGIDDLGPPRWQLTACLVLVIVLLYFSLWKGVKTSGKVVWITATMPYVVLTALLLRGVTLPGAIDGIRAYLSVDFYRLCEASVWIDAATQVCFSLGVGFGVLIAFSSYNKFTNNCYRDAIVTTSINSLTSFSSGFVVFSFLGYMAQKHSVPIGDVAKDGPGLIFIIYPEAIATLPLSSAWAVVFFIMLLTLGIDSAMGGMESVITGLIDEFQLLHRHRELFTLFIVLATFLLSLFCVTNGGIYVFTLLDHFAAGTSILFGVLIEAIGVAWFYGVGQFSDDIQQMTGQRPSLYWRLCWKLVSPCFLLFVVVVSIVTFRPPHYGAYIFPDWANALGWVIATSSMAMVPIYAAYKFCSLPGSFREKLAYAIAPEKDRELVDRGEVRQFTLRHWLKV

[17] = target: T3, Sodium-dependent dopamine transporter; assay: Inhibition of [3H]dopamine reuptake at human DAT expressed in HEK293 cells; type: cell-based
[18] = target: T1, Sodium-dependent serotonin transporter; assay: Inhibition of [3H]serotonin reuptake at human SERT expressed in HEK293 cells; type: cell-based
[19] = target: T2, Sodium-dependent noradrenaline transporter; assay: Inhibition of [3H]norepinephrine reuptake at human NET expressed in HEK293 cells; type: cell-based
[20] = test system: Rattus norvegicus; assay: Effect on behavioural activity in rat assessed as cocaine-induced lever response at 1 mg/kg, po pretreated with cocaine for 41 mins by drug-discrimination studies; type: functional
[21] = test system: Rattus norvegicus; assay: Effect on behavioural activity in rat assessed as cocaine-induced lever response at 1 mg/kg, po pretreated with cocaine for 90 mins by drug-discrimination studies; type: functional
[22] = test system: Rattus norvegicus; assay: Effect on behavioural activity in rat assessed as cocaine-induced lever response at 1 mg/kg, po pretreated with cocaine for 180 mins by drug-discrimination studies; type: functional
[23] = test system: Rattus norvegicus; assay: Effect on behavioural activity in rat assessed as cocaine-induced lever response at 1 mg/kg, po pretreated with cocaine for 360 mins by drug-discrimination studies; type: functional
[24] = test system: Rattus norvegicus; assay: Effect on behavioural activity in rat assessed as cocaine-induced lever response at 0.1 mg/kg, ip pretreated with cocaine for 15 mins by drug-discrimination studies; type: functional; conditions: route intraperitoneal
[25] = test system: Rattus norvegicus; assay: Effect on behavioural activity in rat assessed as cocaine-induced lever response at 0.25 mg/kg, ip pretreated with cocaine for 15 mins by drug-discrimination studies; type: functional; conditions: route intraperitoneal
[26] = test system: Rattus norvegicus; assay: Effect on behavioural activity in rat assessed as cocaine-induced lever response at 2.5 mg/kg, po pretreated with cocaine for 45 mins by drug-discrimination studies; type: functional
[27] = test system: Rattus norvegicus; assay: Effect on behavioural activity in rat assessed as cocaine-induced lever response at 2.5 mg/kg, po pretreated with cocaine for 90 mins by drug-discrimination studies; type: functional
[28] = test system: Rattus norvegicus; assay: Effect on behavioural activity in rat assessed as cocaine-induced lever response at 2.5 mg/kg, po pretreated with cocaine for 180 mins by drug-discrimination studies; type: functional
[29] = test system: Rattus norvegicus; assay: Effect on behavioural activity in rat assessed as cocaine-induced lever response at 2.5 mg/kg, po pretreated with cocaine for 360 mins by drug-discrimination studies; type: functional
[30] = test system: Rattus norvegicus; assay: Effect on behavioural activity in rat assessed as cocaine-induced lever response at 5 mg/kg, po pretreated with cocaine for 45 mins by drug-discrimination studies; type: functional
[31] = test system: Rattus norvegicus; assay: Effect on behavioural activity in rat assessed as cocaine-induced lever response at 5 mg/kg, po pretreated with cocaine for 90 mins by drug-discrimination studies; type: functional
[32] = test system: Rattus norvegicus; assay: Effect on behavioural activity in rat assessed as cocaine-induced lever response at 5 mg/kg, po pretreated with cocaine for 180 mins by drug-discrimination studies; type: functional
[33] = test system: Rattus norvegicus; assay: Effect on behavioural activity in rat assessed as cocaine-induced lever response at 5 mg/kg, po pretreated with cocaine for 360 mins by drug-discrimination studies; type: functional
[34] = test system: Rattus norvegicus; assay: Effect on behavioural activity in rat assessed as cocaine-induced lever response at 10 mg/kg, po pretreated with cocaine for 45 mins by drug-discrimination studies; type: functional
[35] = test system: Rattus norvegicus; assay: Effect on behavioural activity in rat assessed as cocaine-induced lever response at 10 mg/kg, po pretreated with cocaine for 90 mins by drug-discrimination studies; type: functional
[36] = test system: Rattus norvegicus; assay: Effect on behavioural activity in rat assessed as cocaine-induced lever response at 10 mg/kg, po pretreated with cocaine for 180 mins by drug-discrimination studies; type: functional
[37] = test system: Rattus norvegicus; assay: Effect on behavioural activity in rat assessed as cocaine-induced lever response at 10 mg/kg, po pretreated with cocaine for 360 mins by drug-discrimination studies; type: functional
[38] = test system: Rattus norvegicus; assay: Effect on behavioural activity in rat assessed as cocaine-induced lever response at 25 mg/kg, po pretreated with cocaine for 45 mins by drug-discrimination studies; type: functional
[39] = test system: Rattus norvegicus; assay: Effect on behavioural activity in rat assessed as cocaine-induced lever response at 25 mg/kg, po pretreated with cocaine for 90 mins by drug-discrimination studies; type: functional
[40] = test system: Rattus norvegicus; assay: Effect on behavioural activity in rat assessed as cocaine-induced lever response at 25 mg/kg, po pretreated with cocaine for 180 mins by drug-discrimination studies; type: functional
[41] = test system: Rattus norvegicus; assay: Effect on behavioural activity in rat assessed as cocaine-induced lever response at 25 mg/kg, po pretreated with cocaine for 360 mins by drug-discrimination studies; type: functional
[42] = test system: Rattus norvegicus; assay: Effect on behavioural activity in po dosed rat assessed as cocaine-induced lever response pretreated with cocaine by drug-discrimination studies; type: functional
[43] = test system: Rattus norvegicus; assay: Effect on behavioural activity in rat assessed as cocaine-induced lever response at 0.25 mg/kg, po pretreated with cocaine for 45 mins by drug-discrimination studies; type: functional
[44] = test system: Rattus norvegicus; assay: Effect on behavioural activity in rat assessed as cocaine-induced lever response at 0.25 mg/kg, po pretreated with cocaine for 90 mins by drug-discrimination studies; type: functional
[45] = test system: Rattus norvegicus; assay: Effect on behavioural activity in rat assessed as cocaine-induced lever response at 0.25 mg/kg, po pretreated with cocaine for 180 mins by drug-discrimination studies; type: functional
[46] = test system: Rattus norvegicus; assay: Effect on behavioural activity in rat assessed as cocaine-induced lever response at 0.25 mg/kg, po pretreated with cocaine for 360 mins by drug-discrimination studies; type: functional
[47] = test system: Rattus norvegicus; assay: Effect on behavioural activity in rat assessed as cocaine-induced lever response at 0.5 mg/kg, po pretreated with cocaine for 45 mins by drug-discrimination studies; type: functional
[48] = test system: Rattus norvegicus; assay: Effect on behavioural activity in rat assessed as cocaine-induced lever response at 0.5 mg/kg, po pretreated with cocaine for 90 mins by drug-discrimination studies; type: functional
[49] = test system: Rattus norvegicus; assay: Effect on behavioural activity in rat assessed as cocaine-induced lever response at 0.5 mg/kg, po pretreated with cocaine for 180 mins by drug-discrimination studies; type: functional
[50] = test system: Rattus norvegicus; assay: Effect on behavioural activity in rat assessed as cocaine-induced lever response at 0.5 mg/kg, po pretreated with cocaine for 360 mins by drug-discrimination studies; type: functional

Compound: CC(C)NC(C)C(=O)c1cccc(Cl)c1 (configuration not stated)
- ED50 [1]: 8.8 mg/kg
- Activity [2]: 0.3%
- Ki [3]: > 10 µM
- Ki [4]: > 10 µM
- ED50 [5]: 6.2 mg/kg
- Activity [6]: 46%
- Time to peak locomotor stimulation [7]: 20 min
- Time [8]: 50 min
- Activity [9]: 21.2%
- Activity [10]: 27%
- Activity [11]: 43.8%
- Activity [12]: 53.3%
- Activity [13]: 78.6%
- Activity [14]: 73.5%
- Activity [15]: 94.9%

Compound: CC(C)CC(NC(C)(C)C)C(=O)c1cccc(Cl)c1 (configuration not stated)
- Ki [16]: 0.14 µM
- Ki [3]: 6.2 µM
- Ki [4]: 2.3 µM
- IC50 [17]: 0.44 µM
- IC50 [18]: > 10 µM
- IC50 [19]: 0.36 µM
- ED50 [5]: 25.7 mg/kg
- Activity [6]: 89%
- Time to peak locomotor stimulation [7]: 260 min
- Time [8]: 60 min

Compound: CC(NC(C)(C)C)C(=O)c1ccc(Cl)cc1 (configuration not stated)
- Ki [3]: > 10 µM
- Ki [4]: > 10 µM
- Activity [11]: 0.1%
- Activity [12]: 32.7%
- Activity [13]: 18.1%
- Activity [15]: 33.3%
- Activity [20]: 0%
- Activity [21]: 0%
- Activity [22]: 0%
- Activity [23]: 0%

Compound: Cc1ccc(C(=O)C(C)NC(C)(C)C)cc1 (configuration not stated)
- ED50 [1]: 17.3 mg/kg
- Ki [16]: > 10 µM
- Ki [3]: > 10 µM
- ED50 [5]: 3.8 mg/kg
- Activity [6]: 26%
- Time to peak locomotor stimulation [7]: 30 min
- Time [8]: 60 min
- Activity [11]: 0.6%
- Activity [13]: 16.7%
- Activity [14]: 66.7%
- Activity [15]: 100%

Compound: CC(NC1CC1)C(=O)c1cccc(Cl)c1 (configuration not stated)
- Activity [2]: 63%
- Activity [24]: 9%
- Activity [25]: 24%
- Activity [26]: 34%
- Activity [27]: 0%
- Activity [28]: 34%
- Activity [29]: 0%
- Activity [30]: 34%
- Activity [31]: 0%
- Activity [32]: 0%
- Activity [33]: 0%
- Activity [34]: 74%
- Activity [35]: 33%
- Activity [36]: 33%
- Activity [37]: 0%
- Activity [38]: 67%
- Activity [39]: 83%
- Activity [40]: 99%
- Activity [41]: 0%
- ED50 [5]: 16.6 mg/kg
- Activity [6]: 82%
- Time to peak locomotor stimulation [7]: 0 min
- Time [8]: 350 min
- Activity [9]: 21.5%
- Activity [10]: 39.5%
- Activity [11]: 67.2%
- Activity [12]: 66.7%
- Activity [13]: 66.3%
- ED50 [42]: 12.8 mg/kg
- Activity [43]: 0%
- Activity [44]: 0%
- Activity [45]: 0%
- Activity [46]: 34%
- Activity [47]: 1%
- Activity [48]: 16%
- Activity [49]: 0%
- Activity [50]: 2%
- Activity [20]: 0%
- Activity [21]: 0%
- Activity [22]: 0%
- Activity [23]: 0%
